What was measured:
[1] = biological target: T1, Adenosine receptor A1 (Homo sapiens, UniProt P30542)
T1 sequence (P30542 whole entry): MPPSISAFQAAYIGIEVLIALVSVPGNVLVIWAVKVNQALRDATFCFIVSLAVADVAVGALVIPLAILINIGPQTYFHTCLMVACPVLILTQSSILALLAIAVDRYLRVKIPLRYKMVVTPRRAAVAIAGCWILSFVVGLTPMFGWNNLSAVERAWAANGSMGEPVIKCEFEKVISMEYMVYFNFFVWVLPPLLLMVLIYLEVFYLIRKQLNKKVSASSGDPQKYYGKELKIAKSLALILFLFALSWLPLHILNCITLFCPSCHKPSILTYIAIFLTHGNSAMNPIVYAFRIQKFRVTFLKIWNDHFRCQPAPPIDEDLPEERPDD

[2] = biological target: Adenosine receptor A2a (Homo sapiens, UniProt P29274)
[3] = biological target: T2, Adenosine receptor A3 (Homo sapiens, UniProt P0DMS8)
T2 sequence (P0DMS8 whole entry): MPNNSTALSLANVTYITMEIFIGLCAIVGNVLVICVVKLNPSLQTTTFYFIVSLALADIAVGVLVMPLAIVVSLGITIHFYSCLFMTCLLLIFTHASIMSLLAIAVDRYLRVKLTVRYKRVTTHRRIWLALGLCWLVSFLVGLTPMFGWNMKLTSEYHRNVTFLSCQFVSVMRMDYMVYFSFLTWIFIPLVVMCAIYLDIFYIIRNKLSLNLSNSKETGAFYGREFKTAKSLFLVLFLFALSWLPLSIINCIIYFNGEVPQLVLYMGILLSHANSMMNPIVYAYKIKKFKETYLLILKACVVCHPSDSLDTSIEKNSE

[4] = biological target: Vasopressin V1a receptor (Homo sapiens, UniProt P37288)
[5] = biological target: D(1A) dopamine receptor (Homo sapiens, UniProt P21728); format: functional, cell-based
[6] = biological target: Gamma-aminobutyric acid receptor subunit alpha-1 (Rattus norvegicus, UniProt P62813); format: functional
[7] = biological target: Glutamate receptor ionotropic, NMDA 1 (Rattus norvegicus, UniProt P35439)
[8] = biological target: T3, 5-hydroxytryptamine receptor 2C (Homo sapiens, UniProt P28335)
T3 sequence (P28335 whole entry): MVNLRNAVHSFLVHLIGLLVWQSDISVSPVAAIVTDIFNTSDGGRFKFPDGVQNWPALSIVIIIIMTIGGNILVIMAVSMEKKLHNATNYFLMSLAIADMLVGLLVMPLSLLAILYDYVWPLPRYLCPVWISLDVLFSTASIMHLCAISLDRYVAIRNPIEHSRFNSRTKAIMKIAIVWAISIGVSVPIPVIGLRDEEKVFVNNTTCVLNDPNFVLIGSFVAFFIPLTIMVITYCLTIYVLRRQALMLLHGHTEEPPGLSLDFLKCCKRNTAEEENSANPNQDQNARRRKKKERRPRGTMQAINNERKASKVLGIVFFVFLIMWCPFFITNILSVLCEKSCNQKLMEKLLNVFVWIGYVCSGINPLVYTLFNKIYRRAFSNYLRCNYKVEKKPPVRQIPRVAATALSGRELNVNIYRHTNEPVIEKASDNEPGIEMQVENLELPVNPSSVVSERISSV

[9] = biological target: Voltage-gated inwardly rectifying potassium channel KCNH2 (Homo sapiens, UniProt Q12809); format: functional; conditions: read-out: AC50
[10] = biological target: Melanocortin receptor 3 (Homo sapiens, UniProt P41968)
[11] = biological target: T4, Prostaglandin G/H synthase 1 (Rattus norvegicus, UniProt Q63921); format: functional
T4 sequence (Q63921 whole entry): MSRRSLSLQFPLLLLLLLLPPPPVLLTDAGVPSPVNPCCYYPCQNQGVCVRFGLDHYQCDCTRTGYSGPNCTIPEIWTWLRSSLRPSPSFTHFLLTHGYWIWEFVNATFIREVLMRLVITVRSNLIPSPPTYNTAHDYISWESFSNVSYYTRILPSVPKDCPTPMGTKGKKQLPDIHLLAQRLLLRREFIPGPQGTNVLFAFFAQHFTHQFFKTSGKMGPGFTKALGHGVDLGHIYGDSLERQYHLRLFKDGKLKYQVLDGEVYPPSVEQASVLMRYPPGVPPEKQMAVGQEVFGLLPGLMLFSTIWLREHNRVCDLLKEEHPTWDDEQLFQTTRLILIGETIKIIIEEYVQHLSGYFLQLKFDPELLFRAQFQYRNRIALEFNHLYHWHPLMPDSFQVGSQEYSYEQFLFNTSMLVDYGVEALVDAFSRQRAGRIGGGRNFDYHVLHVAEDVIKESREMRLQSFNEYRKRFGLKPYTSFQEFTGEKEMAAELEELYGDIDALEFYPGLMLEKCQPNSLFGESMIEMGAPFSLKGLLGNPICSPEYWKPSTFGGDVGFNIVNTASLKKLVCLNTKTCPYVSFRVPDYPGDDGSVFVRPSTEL
Also: assay procedure not described here.

Voltage-gated inwardly rectifying potassium channel KCNH2, sequence (Q12809 whole entry): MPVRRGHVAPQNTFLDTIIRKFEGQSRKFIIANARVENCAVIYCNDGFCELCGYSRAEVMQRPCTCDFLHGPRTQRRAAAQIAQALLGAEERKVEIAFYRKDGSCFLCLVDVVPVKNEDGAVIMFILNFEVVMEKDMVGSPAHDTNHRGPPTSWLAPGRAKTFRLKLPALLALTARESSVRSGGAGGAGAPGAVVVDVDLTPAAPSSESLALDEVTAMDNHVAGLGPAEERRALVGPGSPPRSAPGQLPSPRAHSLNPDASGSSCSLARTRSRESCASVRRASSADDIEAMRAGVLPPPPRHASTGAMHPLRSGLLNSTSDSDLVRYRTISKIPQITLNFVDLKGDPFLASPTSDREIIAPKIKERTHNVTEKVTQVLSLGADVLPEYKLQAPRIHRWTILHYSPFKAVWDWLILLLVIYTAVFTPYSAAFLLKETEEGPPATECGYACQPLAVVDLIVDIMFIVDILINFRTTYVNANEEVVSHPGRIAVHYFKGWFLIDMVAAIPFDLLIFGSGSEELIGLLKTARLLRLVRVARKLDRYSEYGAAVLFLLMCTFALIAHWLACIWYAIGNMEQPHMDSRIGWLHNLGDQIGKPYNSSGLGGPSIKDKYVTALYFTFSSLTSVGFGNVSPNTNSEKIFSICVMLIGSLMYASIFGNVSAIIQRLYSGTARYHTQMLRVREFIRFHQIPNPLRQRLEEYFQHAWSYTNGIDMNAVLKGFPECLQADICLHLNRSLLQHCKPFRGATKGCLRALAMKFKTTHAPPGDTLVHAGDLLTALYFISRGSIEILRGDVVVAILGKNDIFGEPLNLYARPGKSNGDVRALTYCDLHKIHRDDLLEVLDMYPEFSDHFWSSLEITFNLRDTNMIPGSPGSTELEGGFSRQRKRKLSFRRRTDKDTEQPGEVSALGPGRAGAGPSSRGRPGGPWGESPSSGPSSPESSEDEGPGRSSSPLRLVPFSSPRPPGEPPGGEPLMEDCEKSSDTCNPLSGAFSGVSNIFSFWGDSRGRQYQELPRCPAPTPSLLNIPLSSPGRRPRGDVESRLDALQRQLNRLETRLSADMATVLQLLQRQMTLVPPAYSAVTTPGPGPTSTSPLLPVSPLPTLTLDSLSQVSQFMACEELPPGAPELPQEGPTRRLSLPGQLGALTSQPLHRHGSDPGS
D(1A) dopamine receptor, sequence (P21728 whole entry): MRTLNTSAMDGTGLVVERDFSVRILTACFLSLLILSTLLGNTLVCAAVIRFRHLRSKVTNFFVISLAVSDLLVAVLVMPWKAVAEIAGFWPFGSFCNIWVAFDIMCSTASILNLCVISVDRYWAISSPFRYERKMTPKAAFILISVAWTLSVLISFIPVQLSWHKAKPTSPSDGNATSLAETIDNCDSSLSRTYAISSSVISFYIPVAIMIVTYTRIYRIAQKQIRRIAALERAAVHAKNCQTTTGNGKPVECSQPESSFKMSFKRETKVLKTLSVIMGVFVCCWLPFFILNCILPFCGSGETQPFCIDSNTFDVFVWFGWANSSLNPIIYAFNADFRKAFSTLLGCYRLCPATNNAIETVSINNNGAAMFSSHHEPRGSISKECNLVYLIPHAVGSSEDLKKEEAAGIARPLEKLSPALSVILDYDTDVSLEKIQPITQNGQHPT
Melanocortin receptor 3, sequence (P41968 whole entry): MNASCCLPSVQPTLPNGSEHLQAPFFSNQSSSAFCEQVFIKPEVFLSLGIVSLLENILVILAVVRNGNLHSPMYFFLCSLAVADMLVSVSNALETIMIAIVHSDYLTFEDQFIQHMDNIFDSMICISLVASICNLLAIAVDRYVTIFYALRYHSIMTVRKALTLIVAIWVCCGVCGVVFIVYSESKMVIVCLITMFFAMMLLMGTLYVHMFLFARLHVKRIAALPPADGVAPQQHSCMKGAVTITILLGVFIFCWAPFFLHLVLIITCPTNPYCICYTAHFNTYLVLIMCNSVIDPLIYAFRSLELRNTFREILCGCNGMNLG
Gamma-aminobutyric acid receptor subunit alpha-1, sequence (P62813 whole entry): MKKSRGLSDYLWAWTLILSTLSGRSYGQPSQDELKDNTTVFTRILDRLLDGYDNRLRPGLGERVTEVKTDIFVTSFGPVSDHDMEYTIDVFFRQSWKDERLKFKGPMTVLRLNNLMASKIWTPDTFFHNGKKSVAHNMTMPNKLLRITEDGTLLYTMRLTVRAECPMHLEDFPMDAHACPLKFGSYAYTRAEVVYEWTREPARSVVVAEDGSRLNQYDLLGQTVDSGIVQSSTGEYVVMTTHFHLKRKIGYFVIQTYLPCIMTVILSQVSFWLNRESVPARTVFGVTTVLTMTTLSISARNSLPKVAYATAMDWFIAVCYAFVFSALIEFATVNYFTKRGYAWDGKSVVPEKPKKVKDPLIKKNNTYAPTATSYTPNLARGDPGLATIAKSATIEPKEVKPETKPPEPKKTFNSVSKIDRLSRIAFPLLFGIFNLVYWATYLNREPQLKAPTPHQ
Vasopressin V1a receptor, sequence (P37288 whole entry): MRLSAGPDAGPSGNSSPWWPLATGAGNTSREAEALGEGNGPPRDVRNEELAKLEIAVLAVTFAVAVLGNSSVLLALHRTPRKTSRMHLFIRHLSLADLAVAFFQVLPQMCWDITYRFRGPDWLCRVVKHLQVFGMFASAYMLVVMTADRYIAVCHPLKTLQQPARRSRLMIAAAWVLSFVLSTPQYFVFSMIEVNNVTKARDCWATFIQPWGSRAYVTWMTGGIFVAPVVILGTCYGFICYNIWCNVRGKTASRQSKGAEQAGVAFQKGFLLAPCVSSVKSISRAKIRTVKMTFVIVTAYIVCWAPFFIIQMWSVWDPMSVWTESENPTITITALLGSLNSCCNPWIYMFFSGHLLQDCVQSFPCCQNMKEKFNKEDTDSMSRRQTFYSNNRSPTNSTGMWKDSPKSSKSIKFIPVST
Adenosine receptor A2a, sequence (P29274 whole entry): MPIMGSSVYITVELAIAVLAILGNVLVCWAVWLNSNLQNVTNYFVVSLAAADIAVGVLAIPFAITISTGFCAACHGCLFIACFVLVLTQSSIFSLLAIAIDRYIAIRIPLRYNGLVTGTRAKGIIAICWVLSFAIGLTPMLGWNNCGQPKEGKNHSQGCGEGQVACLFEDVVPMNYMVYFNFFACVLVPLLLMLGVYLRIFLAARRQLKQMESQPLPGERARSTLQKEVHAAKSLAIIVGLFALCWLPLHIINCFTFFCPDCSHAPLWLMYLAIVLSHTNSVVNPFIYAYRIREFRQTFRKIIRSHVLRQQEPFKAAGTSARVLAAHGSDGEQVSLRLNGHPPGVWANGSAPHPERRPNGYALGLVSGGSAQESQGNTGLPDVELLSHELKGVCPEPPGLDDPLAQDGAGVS

Compound	AC50 [1] [µM]	AC50 [2] [µM]	AC50 [3] [µM]	AC50 [4] [µM]	AC50 [5] [µM]	AC50 [6] [µM]	AC50 [7] [µM]	AC50 [8] [µM]	AC50 [9] [µM]	AC50 [10] [µM]	AC50 [11] [µM]
CC(C)C[C@H]1C(=O)N2CCC[C@H]2[C@]2(O)O[C@](NC(=O)[C@@H]3C=C4c5cccc6[nH]c(Br)c(c56)C[C@H]4N(C)C3)(C(C)C)C(=O)N12 [BROMOCRIPTINE]	> 30	> 30	6.81	> 30	1.52	> 30	> 10	12	> 30	> 30	> 30
CC[C@H]1OC(=O)[C@H](C)[C@@H](O[C@H]2C[C@@](C)(OC)[C@@H](O)[C@H](C)O2)[C@H](C)[C@@H](O[C@@H]2O[C@H](C)C[C@H](N(C)C)[C@H]2O)[C@](C)(O)C[C@@H](C)CN(C)[C@H](C)[C@@H](O)[C@]1(C)O [AZITHROMYCIN]	> 30	> 30	> 30	> 10	> 10	> 10	> 10	> 30	> 30	> 30	> 30
Cc1cccc(Nc2ccccc2C(=O)O)c1C [MEFENAMIC ACID]	> 10	> 10	> 10	> 10	> 10	> 10	> 10	> 30	> 30	> 10	0.26
CCOC(=O)[C@H](CCc1ccccc1)N[C@@H](C)C(=O)N1[C@H](C(=O)O)C[C@@H]2CCC[C@@H]21	> 30	> 30	> 30	> 10	> 10	> 10	> 10	> 30	> 30	> 30	> 30
O=C1Nc2ccc(Cl)cc2[C@@](C#CC2CC2)(C(F)(F)F)O1 [EFAVIRENZ]	> 30	> 30	6	> 30	> 30	> 10	> 10	5.61	> 30	> 30	> 30
C[C@]12CCC(=O)C=C1CC[C@@H]1[C@@H]2[C@@H](O)C[C@@]2(C)[C@H]1CC[C@]2(O)C(=O)CO [HYDROCORTISONE]	> 30	> 30	> 30	> 10	> 10	> 10	> 10	> 30	> 30	> 30	> 30

From ChEMBL document CHEMBL5291721, “A preclinical secondary pharmacology resource illuminates target-adverse drug reaction associations of marketed drugs” (Nat Commun, 2023)
